Data from patent publication US9481654B2, “Compositions and methods for inhibition of the JAK pathway” (Rigel Pharmaceuticals, Inc., priority 2006, dated 2016).

Columns and labels:
[1] = system: primary human T-cells (IL-2 induced proliferation, JAK-1/JAK-3, Stat-5); test: Primary Human T-Cell Proliferation Assay Stimulated with IL-2 (CellTiter-Glo); type: cell-based; conditions: Table III Example 4
Summary of the method: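 Read-out is intracellular ATP luminescence (CellTiter-Glo) after 72 h at 37 °C of IL-2-driven growth. Cells, pre-stimulated via TCR and CD28 then washed free of IL-2, were resuspended in Yssel's medium, given 80 U/mL IL-2 in the cell suspension plus duplicate compound; unstimulated wells lacked IL-2.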

[2] = system: IFNγ induced ICAM-1 (CD54) up-regulation in A549 lung epithelial cells (JAK/Stat pathway); test: A549 Epithelial Line Stimulated with IFNγ (ICAM-1 surface expression, flow cytometry); type: cell-based, human
Summary of the method: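 A549 cells (20,000/well, adhered overnight) pre-treated with compound 1 h, then IFNγ 75 ng/mL for 24 h; compound 30 μM–14 nM in 5% FBS, 0.3% DMSO. Surface ICAM-1 stained with APC anti-CD54, geometric mean by flow cytometry; dose-response gives EC50.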

IC50 ([2]; Homo sapiens, A549, Table III Example 5) [nM] | Compound | IC50 [1] [nM] | IC50 ([2]; Table III Example 5) [nM] | IC50 ([1]; Homo sapiens, T-cell) [nM]
– | Cc1ccc(Nc2ncc(C)c(Nc3ccc(CN(C)S(=O)(=O)C4CC4)cc3)n2)cc1S(N)(=O)=O [Compound I-126, N2-(3-aminosulfonyl-4-methyl)phenyl-N4-[4-(N-cyclopropylsulfonyl-N-methyl)aminomethyl]phenyl-5-methyl-2,4-pyrimidinediamine] | 74.2 | 5560 | –
– | CCS(=O)(=O)NCCc1ccc(Nc2nc(Nc3cccc(S(N)(=O)=O)c3)ncc2C)cc1 [Compound I-39, N2-(3-aminosulfonyl)phenyl-N4-[4-(2-ethylsulfonylamino)ethyl]phenyl-5-methyl-2,4-pyrimidinediamine] | 58 | 3750 | –
– | NS(=O)(=O)c1ccc(Nc2ncc(Cl)c(Nc3ccc(CNS(=O)(=O)C4CC4)cc3)n2)cc1 [Compound I-115, N2-(4-aminosulfonyl)phenyl-5-chloro-N4-(4-cyclopropylsulfonylaminomethyl)phenyl-2,4-pyrimidinediamine] | 19.2 | 2720 | –
– | COCCCNS(=O)(=O)c1ccc(Nc2ncc(C)c(Nc3ccc(CNS(=O)(=O)C4CC4)cc3)n2)cc1 [Compound I-181, N4-(4-cyclopropylsulfonylaminomethyl)phenyl-N2-[4-(3-methoxypropyl)aminosulfonyl]phenyl-5-methyl-2,4-pyrimidinediamine] | 121 | 2350 | –
– | C#CCNS(=O)(=O)c1cccc(Nc2ncc(C)c(Nc3ccc(CNS(=O)(=O)C4CC4)cc3)n2)c1 [Compound I-165, N4-(4-cyclopropylsulfonylaminomethyl)phenyl-5-methyl-N2-(3-propargylaminosulfonyl)phenyl-2,4-pyrimidinediamine] | 19.9 | 8970 | –
– | NS(=O)(=O)c1cccc(Nc2ncc(F)c(Nc3ccc(CNS(=O)(=O)C4CCCCC4)cc3)n2)c1 [Compound I-72, N2-(3-aminosulfonyl)phenyl-N4-(4-cyclohexylsulfonylaminomethyl)phenyl-5-fluoro-2,4-pyrimidinediamine] | 25.1 | 2660 | –
– | Cc1ccc(Nc2ncc(C)c(Nc3ccc(CNS(=O)(=O)C4CC4)cc3)n2)cc1S(=O)(=O)NCC1CC1 [Compound I-192, N2-(3-cyclopropylmethylaminosulfonyl-4-methyl)phenyl-N4-(4-cyclopropylsulfonylaminomethyl)phenyl-5-methyl-2,4-pyrimidinediamine] | 43.4 | 2300 | –
– | CCNS(=O)(=O)c1ccc(Nc2ncc(C)c(Nc3ccc(CNS(=O)(=O)C4CC4)cc3)n2)cc1 [Compound I-175, N4-(4-cyclopropylsulfonylaminomethyl)phenyl-N2-(4-ethylaminosulfonyl)phenyl-5-methyl-2,4-pyrimidinediamine] | 102 | 2370 | –
– | Cc1cnc(Nc2cccc(S(N)(=O)=O)c2)nc1Nc1ccc(CCNS(=O)(=O)C2CC2)cc1 [Compound I-54, N2-(3-aminosulfonyl)phenyl-N4-[4-(2-cyclopropylsulfonylamino)ethyl]phenyl-5-methyl-2,4-pyrimidinediamine] | 47 | 4690 | –
– | Cc1cnc(Nc2cccc(S(=O)(=O)NCC3CC3)c2)nc1Nc1ccc(CNS(=O)(=O)C2CC2)cc1 [Compound I-180, N2-(3-cyclopropylmethylaminosulfonyl)phenyl-N4-(4-cyclopropylsulfonylaminomethyl)phenyl-5-methyl-2,4-pyrimidinediamine] | 148 | 2220 | –
– | NS(=O)(=O)c1cccc(Nc2ncc(F)c(Nc3ccc(CNS(=O)(=O)C4CCCC4)cc3)n2)c1 [Compound I-69, N2-(3-aminosulfonyl)phenyl-N4-(4-cyclopentylsulfonylaminomethyl)phenyl-5-fluoro-2,4-pyrimidinediamine] | 50 | 7760 | –
– | CCNS(=O)(=O)c1cc(Nc2ncc(C)c(Nc3ccc(CNS(=O)(=O)C4CC4)cc3)n2)ccc1C [Compound I-186, N4-(4-cyclopropylsulfonylaminomethyl)phenyl-N2-(3-ethylaminosulfonyl-4-methyl)phenyl-5-methyl-2,4-pyrimidinediamine] | 40 | 1760 | –
– | Cc1cnc(Nc2cccc(S(N)(=O)=O)c2)nc1Nc1ccc(CNS(=O)(=O)C(C)C)cc1 [Compound I-118, N2-(3-aminosulfonyl)phenyl-N4-(4-isopropylsulfonylaminomethyl)phenyl-5-methyl-2,4-pyrimidinediamine] | 15.8 | 2480 | –
– | CNS(=O)(=O)c1cccc(Nc2ncc(C)c(Nc3cccc(CNS(=O)(=O)C4CC4)c3)n2)c1 [Compound I-162, N4-(3-cyclopropylsulfonylaminomethyl)phenyl-5-methyl-N2-(3-methylaminosulfonyl)phenyl-2,4-pyrimidinediamine] | 46.3 | 1920 | –
– | Cc1ccc(Nc2ncc(Cl)c(Nc3ccc(CNS(=O)(=O)C4CC4)cc3)n2)cc1S(N)(=O)=O [Compound I-113, N2-(3-aminosulfonyl-4-methyl)phenyl-5-chloro-N4-(4-cyclopropylsulfonylaminomethyl)phenyl-2,4-pyrimidinediamine] | 17 | 888 | –
– | NS(=O)(=O)c1ccc(Nc2ncc(F)c(Nc3ccc(CNS(=O)(=O)C4CCCC4)cc3)n2)cc1 [Compound I-68, N2-(4-aminosulfonyl)phenyl-N4-(4-cyclopentylsulfonylaminomethyl)phenyl-5-fluoro-2,4-pyrimidinediamine] | 102 | 4950 | –
– | CCCNS(=O)(=O)c1cccc(Nc2ncc(C)c(Nc3ccc(CNS(=O)(=O)C4CC4)cc3)n2)c1 [Compound I-178, N4-(4-cyclopropylsulfonylaminomethyl)phenyl-5-methyl-N2-(3-propylaminosulfonyl)phenyl-2,4-pyrimidinediamine] | 122 | 5450 | –
– | CCS(=O)(=O)N[C@H](C)c1ccc(Nc2nc(Nc3cccc(S(N)(=O)=O)c3)ncc2F)cc1 [Compound I-30, N2-(3-aminosulfonyl)phenyl-N4-[4-(1R-ethylsulfonylamino)ethyl]phenyl-5-fluoro-2,4-pyrimidinediamine] | 153 | 6100 | –
– | Cc1ccc(Nc2ncc(C)c(Nc3ccc(CNS(=O)(=O)C4CC4)cc3)n2)cc1S(=O)(=O)Nc1ccccc1 [Compound I-202, N4-(4-cyclopropylsulfonylaminomethyl)phenyl-5-methyl-N2-(4-methyl-3-phenylaminosulfonyl)phenyl-2,4-pyrimidinediamine] | 184 | 6050 | –
18200 | C#CCNS(=O)(=O)Cc1ccc(Nc2nc(Nc3cccc(S(N)(=O)=O)c3)ncc2F)cc1 [Compound I-4, N2-(3-Aminosulfonylphenyl)-5-fluoro-N4-[4-(prop-2-ynylaminosulfonylmethyl)phenyl]-2,4-pyrimidinediamine] | – | – | 109
– | CCS(=O)(=O)N[C@@H](C)c1ccc(Nc2nc(Nc3cccc(S(N)(=O)=O)c3)ncc2F)cc1 [Compound I-27, N2-(3-aminosulfonyl)phenyl-N4-[4-(1S-ethylsulfonylamino)ethyl]phenyl-5-fluoro-2,4-pyrimidinediamine] | 144 | 5840 | –
– | Cc1cnc(Nc2cccc(S(N)(=O)=O)c2)nc1Nc1cccc(CN(C)S(=O)(=O)C2CC2)c1 [Compound I-120, N2-(3-aminosulfonyl)phenyl-N4-[3-(N-cyclopropylsulfonyl-N-methyl)aminomethyl]phenyl-5-methyl-2,4-pyrimidinediamine] | 47.3 | 2540 | –
– | Cc1cnc(Nc2cccc(S(N)(=O)=O)c2)nc1Nc1ccc2c(c1)CN(S(=O)(=O)C1CC1)C2 [II-8, N2-(3-Aminosulfonyl-phenyl)-N4-[(2-cyclopropylsulfonyl)-isoindolin-5-yl]-5-methyl-2,4-pyrimidinediamine] | 147 | 17800 | –
– | Cc1cnc(Nc2cccc(S(N)(=O)=O)c2)nc1Nc1ccc(CN(C)S(=O)(=O)C2CC2)cc1 [Compound I-121, N2-(3-aminosulfonyl)phenyl-N4-[4-(N-cyclopropylsulfonyl-N-methyl)aminomethyl]phenyl-5-methyl-2,4-pyrimidinediamine] | 46.5 | 36500 | –
– | Cc1ccc(Nc2ncc(F)c(Nc3ccc(CNS(=O)(=O)c4cccs4)cc3)n2)cc1S(N)(=O)=O [Compound I-37, N2-(3-aminosulfonyl-4-methyl)phenyl-5-fluoro-N4-[4-(thiophen-2-yl)sulfonylaminomethyl]phenyl-2,4-pyrimidinediamine] | 152 | 27700 | –
– | Cc1cnc(Nc2cccc(S(N)(=O)=O)c2)nc1Nc1ccc(CNS(=O)(=O)CC(F)(F)F)cc1 [Compound I-97, N2-(3-aminosulfonyl)phenyl-5-methyl-N4-(4-trifluoroethylsulfonylaminomethyl)phenyl-2,4-pyrimidinediamine] | 48.8 | 13300 | –
– | NS(=O)(=O)c1cccc(Nc2ncc(Cl)c(Nc3ccc(CNS(=O)(=O)C4CC4)cc3)n2)c1 [Compound I-114, N2-(3-aminosulfonyl)phenyl-5-chloro-N4-(4-cyclopropylsulfonylaminomethyl)phenyl-2,4-pyrimidinediamine] | 9.2 | 5650 | –
– | CCS(=O)(=O)NCCc1ccc(Nc2nc(Nc3ccc(C)c(S(N)(=O)=O)c3)ncc2F)cc1 [Compound I-16, N2-(3-aminosulfonyl-4-methyl)phenyl-N4-[4-(2-ethylsulfonylamino)ethyl]phenyl-5-fluoro-2,4-pyrimidinediamine] | 536 | 9010 | –
